Measured values as given in patent US20230293611A1, “NATURAL PRODUCT EXTRACTS AND METHODS OF USE THEREOF” (THE ADORED BEAST APOTHECARY LTD., priority 2020, published 2023).

What was measured:
MDA-MB-231 cells = test: MTS assay (Example 1); assay type: cell-based; conditions: Homo sapiens, positive control 50 μM, 24 h, mean±SEM, n=3, read-out: MDA-MB-231 cell viability
Procedure: (§1) • (a) Solvent extraction: Four different solvents were used, namely, methanol, hexane:ethyl acetate (39:1), ethyl acetate, and water. Briefly, 2 g of the test material (MH/GL) were dissolved in 80 ml of appropriate solvents (methanol/hexane:ethyl acetate/ethyl acetate), sonicated twice for 20 min at room temperature (RT), and centrifuged at 3000 rpm for 10 min. The supernatant was collected and evaporated using a rotary evaporation system at 65° C. The concentrated extract was subjected to nitrogen evaporation to remove all the solvent, then dissolved in DMSO to a final concentration of 60 mg/ml. For water extraction, 2 g of the test material was dissolved in 80 ml water, sonicated twice for 20 min at RT, kept at RT for three days, vortexed, and centrifuged at 3000 rpm for 10 min. The supernatant was then freeze-dried into powder. The powder was dissolved in DMSO to a final concentration of 60 mg/ml. • (b) MTS assay: The potential inhibitory effects of MH and GL extracts on HepG2 and MDA-MB-231 cells were measured using MTS assay. Briefly, 6000 cells were seeded and treated with different concentrations (6.25, 12.5, 25, 50, 100, 150, and 300 μg/ml) of extracts for 24 h. Then, MTS/PMS reagent was added and absorbance was measured at 490 nm using a plate reader. Sorafenib (20 μM) and doxorubicin (50 μM) were used as positive controls for HepG2 and MDA-MB-231 cells, respectively. […]

HepG2 cells = test: MTS assay (Example 1); assay type: cell-based; conditions: Homo sapiens, positive control 20 μM, 24 h, mean±SEM, n=3, read-out: HepG2 cell viability
Procedure: as §1

Row | Structure (SMILES) | viability at 50 µM (MDA-MB-231 cells) [%] | viability at 20 µM (HepG2 cells) [%]
1 | COc1cccc2c1C(=O)c1c(O)c3c(c(O)c1C2=O)C[C@@](O)(C(=O)CO)C[C@@H]3O[C@H]1C[C@H](N)[C@H](O)[C@H](C)O1 [doxorubicin] | 24.4 ± 5.1 | 
2 | CNC(=O)c1cc(Oc2ccc(NC(=O)Nc3ccc(Cl)c(C(F)(F)F)c3)cc2)ccn1 [sorafenib] |  | 26 ± 3.7
